Measured values: ChEMBL document CHEMBL1140913, “Discovery and structure-activity relationships of trisubstituted pyrimidines/pyridines as novel calcium-sensing receptor antagonists” (J Med Chem, 2009)
In brackets after ≈: the same amount, converted by molar mass.

What was measured:
[1] = target: T1, Extracellular calcium-sensing receptor (Homo sapiens, UniProt P41180); experiment: Antagonist activity at calcium-sensing receptor expressed in HEK293 cells by FLIPR assay; assay type: functional, cell-based
T1 sequence (P41180 whole entry): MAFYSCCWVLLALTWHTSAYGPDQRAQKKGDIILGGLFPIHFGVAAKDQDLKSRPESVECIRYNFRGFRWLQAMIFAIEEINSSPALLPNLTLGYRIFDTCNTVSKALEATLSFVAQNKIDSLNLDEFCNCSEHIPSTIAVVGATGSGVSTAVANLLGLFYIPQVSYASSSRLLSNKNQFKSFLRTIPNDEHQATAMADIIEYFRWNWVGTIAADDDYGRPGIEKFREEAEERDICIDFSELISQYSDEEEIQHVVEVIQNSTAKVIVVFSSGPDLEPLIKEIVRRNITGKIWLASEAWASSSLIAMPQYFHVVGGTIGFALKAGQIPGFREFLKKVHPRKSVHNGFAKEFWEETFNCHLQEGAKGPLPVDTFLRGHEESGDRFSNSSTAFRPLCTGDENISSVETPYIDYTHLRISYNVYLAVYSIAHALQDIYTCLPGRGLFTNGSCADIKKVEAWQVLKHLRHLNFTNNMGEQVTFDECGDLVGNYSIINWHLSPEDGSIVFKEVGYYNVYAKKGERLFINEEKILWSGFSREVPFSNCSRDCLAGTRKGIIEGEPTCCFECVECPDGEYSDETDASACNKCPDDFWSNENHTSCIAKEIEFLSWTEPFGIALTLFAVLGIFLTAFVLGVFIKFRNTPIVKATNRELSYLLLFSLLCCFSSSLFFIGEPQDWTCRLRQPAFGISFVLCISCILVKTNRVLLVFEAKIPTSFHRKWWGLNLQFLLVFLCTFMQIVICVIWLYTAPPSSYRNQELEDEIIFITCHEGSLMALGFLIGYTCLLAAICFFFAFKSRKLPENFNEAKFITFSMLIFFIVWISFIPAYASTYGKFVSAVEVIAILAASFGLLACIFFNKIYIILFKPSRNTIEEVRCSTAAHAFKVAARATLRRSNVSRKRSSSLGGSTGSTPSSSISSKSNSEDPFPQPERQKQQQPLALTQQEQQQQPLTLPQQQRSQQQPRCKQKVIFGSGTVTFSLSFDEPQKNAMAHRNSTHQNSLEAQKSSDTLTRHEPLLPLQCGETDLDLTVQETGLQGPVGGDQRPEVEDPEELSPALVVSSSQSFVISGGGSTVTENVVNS

[2] = Aqueous solubility at pH 6.5; assay type: physicochemical
[3] = Aqueous solubility at pH 4.5; assay type: physicochemical

| Structure (SMILES) | IC50 [1] [nM] | solubility [2] [µg/mL] | solubility [3] [µg/mL] |
| --- | --- | --- | --- |
| COc1cc(-c2nc(NCc3ccccc3C)ncc2C(=O)NCCOc2ccccc2)cc(OC)c1OC | 10000 |  |  |
| COc1ccccc1-c1nc(N(C)Cc2ccccc2)ncc1C(=O)NCCOc1ccccc1 | > 30000 |  |  |
| COc1cc(-c2nc(NCCc3cccnc3)ncc2C(=O)NCCOc2ccccc2)cc(OC)c1OC | > 30000 |  |  |
| COc1cc(-c2nc(N[C@H](CO)Cc3ccccc3)ccc2C(=O)NCCOc2ccccc2)cc(OC)c1OC | 76 |  |  |
| COc1cc(-c2nc(N(C)Cc3ccccc3)ncc2C(=O)NCCOc2ccccc2)cc(OC)c1OC | 470 |  |  |
| COc1ccc(-c2nc(NCc3ccc4c(c3)OCO4)ncc2C(=O)NC(C)Cc2ccc(Cl)cc2)c(OC)n1 (stereo not drawn) | 150 |  |  |
| COc1cc(-c2nc(NCc3cccc(Cl)c3)ncc2C(=O)NCCOc2ccccc2)cc(OC)c1OC | 70 |  |  |
| CCN(Cc1ccccc1)c1ccc(C(=O)NCCOc2ccccc2)c(-c2ccc(OC)nc2OC)n1 | 1050 |  |  |
| COc1cc(-c2nc(N[C@H](CO)Cc3ccccc3)ncc2C(=O)NCCOc2ccccc2)cc(OC)c1OC | 150 |  |  |
| COc1cc(-c2nc(NCc3cccc(Cl)c3)ccc2C(=O)NCCOc2ccccc2)cc(OC)c1OC | 162 |  |  |
| COc1cccc(-c2nc(N(C)Cc3ccccc3)ncc2C(=O)NCCOc2ccccc2)c1 | > 30000 |  |  |
| CCN(Cc1ccccc1)c1ccc(C(=O)NCCOc2ccccc2)c(-c2cc(OC)c(OC)c(OC)c2)n1 | 154 |  |  |
| CCN(Cc1ccccc1)c1ncc(C(=O)NCCCCc2ccccc2)c(-c2cc(OC)c(OC)c(OC)c2)n1 | 1800 |  |  |
| COc1ccc(-c2nc(N[C@H](CO)Cc3ccccc3)ccc2C(=O)NCCOc2ccccc2)c(OC)n1 | 140 | 11 (≈ 20.8 µM) | 36 (≈ 68.1 µM) |
| COc1ccc(-c2nc(NCc3ccc4c(c3)OCO4)ncc2C(=O)N2CCc3ccccc3C2)c(OC)n1 | 360 |  |  |
| COc1cc(-c2nc(NCc3ccccn3)ncc2C(=O)NCCOc2ccccc2)cc(OC)c1OC | > 30000 |  |  |
| COc1cccc(CNc2ncc(C(=O)NCCOc3ccccc3)c(-c3cc(OC)c(OC)c(OC)c3)n2)c1 | 340 |  |  |
| COc1cc(-c2nc(NCc3ccccc3Cl)ncc2C(=O)NCCOc2ccccc2)cc(OC)c1OC | 4900 |  |  |
| CN(Cc1ccccc1)c1ncc(C(=O)NCCOc2ccccc2)c(-c2ccc(C(F)(F)F)cc2)n1 | 18900 |  |  |
| CCN(Cc1ccccc1)c1ncc(C(=O)NCCCc2ccccc2)c(-c2cc(OC)c(OC)c(OC)c2)n1 | 2100 |  |  |
| COc1cc(OC)cc(-c2nc(N(C)Cc3ccccc3)ncc2C(=O)NCCOc2ccccc2)c1 | > 30000 |  |  |
| CCN(Cc1ccccc1)c1ncc(C(=O)NCCOc2ccccc2)c(-c2cc(OC)c(OC)c(OC)c2)n1 | 200 | < 1 | < 1 |

| Structure (SMILES) | IC50 [1] [nM] | solubility [2] [µg/mL] | solubility [3] [µg/mL] |
| --- | --- | --- | --- |
| COc1cc(-c2nc(NCc3ccc4c(c3)OCO4)ncc2C(=O)NCCOc2ccccc2)cc(OC)c1OC | 150 |  |  |
| CCN(Cc1ccccc1)c1ncc(C(=O)NCCOc2ccccc2)c(C2CCCCC2)n1 | > 30000 |  |  |
| COc1ccc(-c2nc(NCc3cccc(Cl)c3)ccc2C(=O)NCCOc2ccccc2)c(OC)n1 | 197 |  |  |
| COc1cc(-c2nc(NCc3ccc4c(c3)OCO4)ccc2C(=O)NCCOc2ccccc2)cc(OC)c1OC | 130 |  |  |
| CCN(Cc1ccccc1)c1ncc(C(=O)NCCOc2ccccc2)c(-c2ccccc2)n1 | > 30000 |  |  |
| COc1ccc(CNc2ncc(C(=O)NCCOc3ccccc3)c(-c3cc(OC)c(OC)c(OC)c3)n2)cc1 | 3100 |  |  |
| COc1cc(-c2nc(NCCC(C)C)ncc2C(=O)NCCOc2ccccc2)cc(OC)c1OC | 2200 |  |  |
| COc1cccc(CCNc2ncc(C(=O)NCCOc3ccccc3)c(-c3cc(OC)c(OC)c(OC)c3)n2)c1 | 1000 |  |  |
| COc1cc(-c2nc(NCc3cccnc3)ncc2C(=O)NCCOc2ccccc2)cc(OC)c1OC | > 30000 |  |  |
| COc1ccc(-c2nc(N(C)Cc3ccccc3)ncc2C(=O)NCCOc2ccccc2)cc1OC | 6900 |  |  |
| COc1cc(-c2nc(N[C@@H](CO)Cc3ccccc3)ncc2C(=O)NCCOc2ccccc2)cc(OC)c1OC | > 30000 |  |  |
| COc1cc(-c2nc(NCCc3ccccc3)ncc2C(=O)NCCOc2ccccc2)cc(OC)c1OC | 400 |  |  |
| COc1ccc(CCNc2ncc(C(=O)NCCOc3ccccc3)c(-c3cc(OC)c(OC)c(OC)c3)n2)cc1 | 2800 |  |  |
| CCN(Cc1ccccc1)c1ncc(C(=O)NCCOc2ccccc2)c(-c2ccc(OC)nc2OC)n1 | 360 |  |  |
| COc1cc(-c2nc(N(C)CCc3ccccc3)ncc2C(=O)NCCOc2ccccc2)cc(OC)c1OC | 1500 |  |  |
| COc1ccc(-c2nc(N(C)Cc3ccccc3)ncc2C(=O)NCCOc2ccccc2)cc1 | > 30000 |  |  |
| COc1ccc(-c2nc(NCc3ccc4c(c3)OCO4)ncc2C(=O)NCCOc2ccccc2)c(OC)n1 | 220 |  |  |
| COc1cc(-c2nc(NCc3ccccc3)ncc2C(=O)NCCOc2ccccc2)cc(OC)c1OC | 730 |  |  |
| COc1ccc(-c2nc(NCc3ccc4c(c3)OCO4)ccc2C(=O)NCCOc2ccccc2)c(OC)n1 | 60 |  |  |
| COc1ccccc1CCNc1ncc(C(=O)NCCOc2ccccc2)c(-c2cc(OC)c(OC)c(OC)c2)n1 | 340 |  |  |
| COc1cc(-c2nc(NCCc3ccccn3)ncc2C(=O)NCCOc2ccccc2)cc(OC)c1OC | > 30000 |  |  |
| CCN(Cc1ccccc1)c1ncc(C(=O)NCCc2ccccc2)c(-c2cc(OC)c(OC)c(OC)c2)n1 | > 30000 |  |  |
